Data taken from patent US9464064B2, “HCV helicase inhibitors and methods of use thereof” (University of Kansas, priority 2011, dated 2016).
Read-outs that look alike come from different tables or passages of the source.

Tests used:
Huh-7.5 cells = test: Cell viability assay ([…]-GLO); type: cell-based, human; details: for Cell viability (% viable): 10 μM compound, triplicate, average ± SD
In short: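 Huh-7.5 cells exposed to compound for 72 hours, washed, then lysed in a 1:1 mix of growth medium and […]-GLO reagent. After 30 minutes at 23° C., luminescence was read for 1 second as a measure of viability.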

MBHA DNA substrate = test: Modified FID assay, SYBR Green I; type: binding; details: for FID (SG) % Displaced @ 100 μM / EC50: SYBR Green; for EC50: read-out: FID (SG) EC50 (converted); for DNA binding (%): SYBR Green I-FID, average (±SD) percent bound at 100 μM
In short: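 Fluorescent intercalator displacement with SYBR Green I (0.68 μM) in place of ethidium bromide and MBHA DNA at 0.32 μM. Normalized data fit to concentration-response equation; EC50 given as mean ± SD of three independent triplicate titrations.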

[1] = system: HCV RLuc subgenomic replicon (genotype 1b) in Huh-7.5 cells; test: HCV subgenomic replicon assay (Renilla luciferase); type: cell-based, hepatitis C virus; details: Hepatitis C virus
Excerpt: An HCV Renilla luciferase reporter construct (HCV RLuc; Huang, et al. (2006) Hepatology 43:81-90) was used to measure the effect of each compound on cellular HCV RNA levels. In HCV RLuc, the HCV internal ribosome entry site (IRES) drives the translation of the neomycin and Renilla luciferase genes while the HCV nonstructural proteins (NS3 to NS5B) are translated from the Encephalomyocarditis virus IRES (Huang, et al. (2006) supra). The plasmid DNA was cleaved with ScaI, purified by phenol/chloroform extraction followed by ethanol precipitation, and used as template for RNA transcription using […] T7 RNA transcription kit (Ambion, Austin, Tex.). The RNA transcripts were treated with 2 U DNase I (Ambion) at 37° C. for 30 minutes, purified by acid phenol/chloroform extraction, followed by isopropanol precipitation, and suspended in diethylpyrocarbonate-treated water. RNA concentration was determined by spectrophotometry by measuring the A260. RNA integrity and size was checked on 1% agarose gel. Transcribed RNA was stored in aliquots at −80° C. until needed.
Huh-7.5 cells were transfected with HCV RNA by electroporation. Briefly, subconfluent Huh7.5 cells were trypsinized, suspended in complete growth medium, and centrifuged at 1,000×g for 5 minutes at 4° C. The cell pellets were then washed twice with ice-cold phosphate-buffered saline (PBS) and suspended at 1.75×10^7 cells/mL in ice-cold PBS. Replicon RNA (5 μg) was mixed with 0.4 mL of cell suspension and transferred to 2 mm gap width electroporation cuvette (EPPENDORF AG, Germany) and pulsed 5 times for 99 μsec at 820 V over 1.1 sec intervals using the ECM 830 electroporator instrument (BTX Harvard Apparatus, Holliston, Mass.). After a 5 minute recovery period at room temperature, cells were transferred to 10 ml complete growth medium, and seeded into 10 cm diameter cell culture dishes. Twenty-four hours after transfection, the medium was replaced with fresh complete DMEM supplemented with 1 mg/ml geneticin (Invitrogen) and the medium was replaced every three to four days with fresh medium containing 1 mg/mL geneticin. Geneticin-resistant colonies were selected for a period of two weeks and expanded in the presence of 250 μg/mL geneticin.
HCV RLuc replicon cells were seeded at a density of 10×10^3 cells per well in 96-well plates and incubated for 4-5 hours to allow the cells to attach to the plate. The compounds dissolved in dimethyl sulfoxide (DMSO) were added at a final concentration of 10 μM (DMSO solvent final concentration was 0.5%) and the cells were incubated for 72 hours at 37° C. under 5% CO2 atmosphere. The effects of compounds on HCV replication were then assessed by measuring the Renilla luciferase activity in compound-treated versus DMSO-treated cells. At the end of the incubation period, the medium was aspirated and the cells were washed with 1×PBS. The Renilla luciferase reporter gene assay was performed using the Renilla luciferase assay kit (PROMEGA, Madison, Wis.) according to the manufacturer's instructions. Briefly, the cells were lysed by addition of 50 μL of 1× Renilla luciferase lysis buffer followed by two cycles of freeze/thaw. The luciferase activity content of the lysate was measured with a FLUOSTAR Omega microplate reader instrument (BMG Labtech, Germany) after injecting 50 μL of luciferase substrate and reading for 5 seconds.
To determine if the above identified compounds might be useful as HCV antiviral agents, they were added to cells harboring HCV subgenomic RNA replicon. The HCV replicon chosen was derived from the same HCV strain (genotype 1b) as the NS3 protein used for screening and enzyme assays. […] 75:4614-4624; Blight, et al. (2002) J. Virol. 76:13001-13014). […]

[2] = target: T1, E. coli SSB-Cy5-dT15 complex (Escherichia coli, UniProt P0AGE0); test: Escherichia coli SSB Cy5-dT15 binding assay (fluorescence polarization); details: for IC50: disruption of Cy5-dT15-SSB complex, read-out: Cy5-dT15-SSB Binding IC50; for EC50: read-out: SSB EC50; for inhibition at 100 µM: read-out: SSB % Displaced @ 100 μM
T1 construct: purchased Promega
In short: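 Fluorescence polarization with 5 nM Cy5-dT15 and 20 nM E. coli SSB in 25 mM MOPS pH 7.5, 1.25 mM MgCl2, BSA, Tween 20, DTT. Screening at 1% DMSO; IC50 runs at 5% DMSO. Excitation 635 nm, parallel and perpendicular emission at 667 nm.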

[3] = Huh7.5, 10 μM, read-out: Replicon (% Inhibition @ 10 μM)
[4] = Huh7.5, 10 μM compound, triplicate, average ± SD, read-out: HCV replication (% Inh.)

T1 sequence (P0AGE0 2-178, one chain of several): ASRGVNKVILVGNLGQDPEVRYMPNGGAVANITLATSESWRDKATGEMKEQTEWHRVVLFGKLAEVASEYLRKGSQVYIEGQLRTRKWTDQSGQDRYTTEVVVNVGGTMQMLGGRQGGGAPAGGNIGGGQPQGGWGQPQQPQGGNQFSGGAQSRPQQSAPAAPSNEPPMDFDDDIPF

Row | Compound | Cell Viability (% @ 10 μM) (Huh-7.5 cells) [%] | FID (SG) % Displaced @ 100 μM (MBHA DNA substrate) [%] | EC50 (MBHA DNA substrate) [µM] | inhibition at 10 µM [1, 3] [%] | IC50 [2] [µM] | EC50 [2] [µM] | Cell viability (% viable) (Huh-7.5 cells) [%] | DNA binding (%) (MBHA DNA substrate) | inhibition at 10 µM [1, 4] [%] | inhibition at 100 µM [2] [%]
1 | Cc1ccc2nc(-c3ccc(NC(=O)c4ccc(NC(=O)c5ccc(NC(=O)OCC6c7ccccc7-c7ccccc76)cc5)cc4)cc3)sc2c1S(=O)(=O)O.N [Compound 51] | 113 ± 5 | 22 | > 100 | -14 ± 26 | 7 ± 3 | 7 |  |  |  | 
2 | Cc1ccc2nc(-c3ccc4nc(-c5ccc(NC(=O)c6ccc(NC(=O)OCC7c8ccccc8-c8ccccc87)cc6)cc5)sc4c3)sc2c1S(=O)(=O)O [Compound 16, 2′-(4-(4-((((9H-fluoren-9-yl)methoxy)carbonyl)amino)benzamido)phenyl)-6-methyl-[2,6′-bibenzo[d]thiazole]-7-sulfonic acid] | 92 ± 4 | 76 ± 5 | 6 ± 2 | 57 ± 21 | 179 ± 239 | > 100 | 92 ± 4 | 76 ± 5 | 57 ± 21 | 53
3 | CC(=O)Nc1ccc(-c2nc3ccc(-c4nc5ccc(C)c(S(=O)(=O)O)c5s4)cc3s2)cc1 [Compound 30, 2′-(4-acetamidophenyl)-6-methyl-[2,6′-bibenzo[d]thiazole]-7-sulfonic acid] | 102 ± 9 | 48 ± 5 | > 100 | 26 ± 21 | 17 ± 4 | 17 | 100 ± 6 | 48 ± 5 | 1 ± 12 | 89
4 | COc1ccc(NC(=O)Nc2ccc(-c3nc4ccc(-c5nc6ccc(C)c(S(=O)(=O)O)c6s5)cc4s3)cc2)cc1 [Compound 55] | 99 ± 9 | 55 ± 6 | 73 | 21 ± 10 | 4 ± 1 | 4 |  |  |  | 95
5 | Cc1ccc2nc(-c3ccc(NC(=O)c4ccc(NC(=O)Nc5ccccc5)cc4)cc3)sc2c1S(=O)(=O)O.N [Compound 45] | 113 ± 4 | 17 ± 2 | > 100 | -64 ± 90 | 20 ± 4 | 20 |  |  |  | 96
6 | COc1ccc(S(=O)(=O)Nc2ccc(-c3nc4ccc(-c5nc6ccc(C)c(S(=O)(=O)O)c6s5)cc4s3)cc2)cc1 [Compound 29, 2′-(4-(4-methoxyphenylsulfonamido)phenyl)-6-methyl-[2,6′-bibenzo[d]thiazole]-7-sulfonic acid] | 75 ± 3 | 69 ± 4 | 42 | 44 ± 5 | 10 ± 2 | 10 | 75 ± 3 | 69 ± 4 | 44 ± 5 | 98
7 | Cc1ccc2nc(-c3ccc4nc(-c5ccc(NC(=O)c6ccc(C(F)(F)F)c(F)c6)cc5)sc4c3)sc2c1S(=O)(=O)O [Compound 23, 2′-(4-(3-fluoro-4-(trifluoromethyl)benzamido)phenyl)-6-methyl-[2,6′-bibenzo[d]thiazole]-7-sulfonic acid] | 129 ± 2 | 66 ± 18 | 28 ± 28 | 48 ± 4 | 10 ± 1 | 10 ± 1 | 129 ± 2 | 66 ± 18 | 48 ± 4 | 92
8 | Cc1ccc2nc(-c3ccc4nc(-c5ccc(NC(=O)Nc6ccc(F)cc6)cc5)sc4c3)sc2c1S(=O)(=O)O.N [Compound 48] | 93 ± 2 | 58 ± 3 | 74 | 17 ± 25 | 11 ± 2 | 11 |  |  |  | 100
9 | Cc1ccc2nc(-c3ccc4nc(-c5ccc(NC(=O)c6ccccc6)cc5)sc4c3)sc2c1S(=O)(=O)O [Compound 5, 2′-(4-benzamidophenyl)-6-methyl-[2,6′-bibenzo[d]thiazole]-7-sulfonic acid] | 88 ± 2 | 31 ± 13 | > 100 | 45 ± 5 | 4 ± 1 | 4 ± 1 | 88 ± 2 | 31 ± 13 | 45 ± 5 | 91
10 | Cc1ccc2nc(-c3ccc4nc(-c5ccc(NC(=O)c6ccc7ccccc7c6)cc5)sc4c3)sc2c1S(=O)(=O)O [Compound 33, 2′-(4-(2-naphthamido)phenyl)-6-methyl-[2,6′-bibenzo[d]thiazole]-7-sulfonic acid] | 99 ± 11 | 63 ± 11 | 25 | 21 ± 33 | 28 ± 9 | 28 |  | 64 ± 7 | 61 ± 10 | 78
11 | Cc1ccc2nc(-c3ccc(NC(=O)c4ccc(NC(=S)Nc5ccccc5)cc4)cc3)sc2c1S(=O)(=O)O.N [Compound 43] | 106 ± 3 | 37 ± 4 | > 100 | -13 ± 2 | 23 ± 5 | 23 |  |  |  | 93
12 | Cc1ccc2nc(-c3ccc4nc(-c5ccc(NC(=O)c6ccc(Cl)c(Cl)c6)cc5)sc4c3)sc2c1S(=O)(=O)O [Compound 18, 2′-(4-(3,4-dichlorobenzamido)phenyl)-6-methyl-[2,6′-bibenzo[d]thiazole]-7-sulfonic acid] | 114 ± 7 | 67 ± 12 | 30 ± 32 | 43 ± 15 | 128 ± 57 | > 100 | 114 ± 7 | 67 ± 12 | 43 ± 15 | 53
13 | Cc1ccc2nc(-c3ccc4nc(-c5ccc(NC(=O)c6ccccc6C(F)(F)F)cc5)sc4c3)sc2c1S(=O)(=O)O [Compound 19, 6-methyl-2′-(4-(2-(trifluoromethyl)benzamido)phenyl)-[2,6′-bibenzo[d]thiazole]-7-sulfonic acid] | 112 ± 1 | 30 ± 15 | > 100 | 0.3 ± 9 | 13 ± 2 | 13 ± 2 | 112 ± 1 | 30 ± 15 | 0 | 92
